# Data reported in patent publication US6590140B1, “Metal-regulated transporters and uses therefor” (Trustees of Dartmouth College, priority 1996, dated 2003).
# Like-named read-outs stand apart in the source and are kept apart here.
# Experiments:
# [1] = target: T1, high affinity zinc uptake system (Zrt1p) (Saccharomyces cerevisiae, UniProt P32804); experiment: 65Zn uptake assay in yeast, high affinity zinc uptake system; format: cell-based; conditions: for effect on zinc uptake by the high affinity system: 20 μM added metal, zinc-limited wild type
# T1 construct: endogenous in cells; host or cells: S. cerevisiae DY1457 (wild type, zinc-limited) and ZHY2 (zrt2); one kinetic value comes from ZHY1 carrying pOE1 (ZRT1 ORF under the GAL1 promoter)
# T1 sequence (P32804 whole entry): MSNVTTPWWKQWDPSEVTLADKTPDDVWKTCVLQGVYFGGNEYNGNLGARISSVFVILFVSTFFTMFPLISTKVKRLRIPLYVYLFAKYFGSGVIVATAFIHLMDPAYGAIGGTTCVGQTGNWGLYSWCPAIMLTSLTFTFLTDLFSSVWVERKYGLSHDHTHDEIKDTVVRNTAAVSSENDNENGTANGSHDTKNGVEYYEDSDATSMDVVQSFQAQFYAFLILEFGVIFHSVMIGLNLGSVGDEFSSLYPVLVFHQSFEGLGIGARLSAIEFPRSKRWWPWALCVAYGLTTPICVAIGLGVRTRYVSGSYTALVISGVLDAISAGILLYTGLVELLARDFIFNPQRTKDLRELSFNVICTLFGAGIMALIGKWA
# Experimental: (§1) Zinc uptake assays were performed as described previously for iron uptake (Eide et al. J. Biol. Chem. 267:20774-20781) except that ^65ZnCl2 (Amersham Corp., Arlington Heights, Ill.) and LZM-EDTA were substituted for ^59FeCl3 and LIM-EDTA. Cells were incubated at 30° C. with ^65Zn for five minutes, filtered, and washed with 10 ml ice-cold SSW. Cell-associated radioactivity was measured by liquid scintillation. Kinetic values were derived using KinetAsyst software (IntelliKinetics, Princeton, N.J.). Zinc accumulation was measured in cells grown in LZM medium supplemented with […] ^65Zn plus nonradioactive zinc to the indicated final concentration. Aliquots (0.5 ml) were filtered, washed with 10 ml ice-cold SSW, and counted by liquid scintillation. b-galactosidase activity was assayed as described by Guarente (Guarante, L. (1983) Methods Enzymol101:181-191).
# (§2) Zinc uptake assays were performed as described previously for iron uptake (Eide et al. (1992) J. Biol. Chem. 267:20774-20781) except that ^65ZnCl2 (Amersham) and LZM-EDTA were substituted for ^59FeCI3 and LIM-EDTA, respectively. Cells were incubated for 5 minutes in LZM-EDTA plus the indicated concentration of ^65Zn, collected on glass fiber filters (Schleicher and Schuell), washed with 10 ml ice-cold SSW (1 mM EDTA, 20 mM trisodium citrate, 1 mM KH2PO4, 1 mM CaCl2, 5 mM MgSO4, 1 mM NaCl pH 4.2), and cell-associated radioactivity was measured by liquid scintillation counting. Cells were starved for glucose by incubating them in LZM-EDTA prepared without glucose for one hour at 30° C. prior to assay. Michaelis-Menten kinetic values were determined using […] software (Intellikinetics, Princeton, N.J.). Stock solutions of the chloride salts of Co, Cu, Mg, Mn, and Ni were prepared in distilled water at a concentration of 100 mM. The nonradioactive ZnCl2 stock was prepared at 100 mM in 0.02 N HCl and the FeCl3 stock was prepared at 50 mM in 0.1 N HCl. The statistical significance of the differences of values relative to controls was determined with one-way analysis of variance (ANOVA) followed by a Dunnett multiple comparison test. β-galactosidase activity was assayed in cells harvested at an OD600 of 0.5-2.0 as described by Guarente (Guarente, L. (1983) Methods Enzymol. 101:181-191) and activity is expressed as the change in absorbance at 420 nm×1000 divided by (min×ml of culture used×OD600 of the culture). Cell-associated zinc was measured in parallel cultures supplemented with tracer amounts of ^65Zn (10 μM) and nonradioactive zinc to the indicated final concentration. Aliquots (0.5 ml) were filtered, washed with 10 ml ice-cold SSW, and radioactivity measured by liquid scintillation.
# (§3) To determine if ZRT1 plays a role in zinc uptake, the biochemical properties of this process in wild type cells were first characterized. […] Wild type (FIG. 10, DY1457, squares) and zrt1 mutant (FIG. 10, ZHY1, circles) cells were grown to exponential phase in zinc-limited (open symbols, FIG. 10) and zinc-replete (FIG. 10, closed symbols) media and assayed for zinc uptake rate over a range ZnSO4 concentrations. Zinc-limited media was LZM+10 μM zinc for the wild type and LZM+500 μM zinc for the mutant. Zinc-replete conditions were LZM+1000 μM for both strains. ZHY1(pOE1) cells (FIG. 10, triangles) were grown in zinc-replete SDgal medium.
# (§4) Mutant zrt1 (ZHY1) cells were grown in LZM supplemented with 1 mM ZnCl2. Cells were incubated with 10 μM ^65Zn for the indicated times at either […]
# [2] = target: T2, low affinity zinc uptake system (Zrt2p) (Saccharomyces cerevisiae, UniProt Q12436); format: cell-based; conditions: for uptake rate of radioactive zinc, % of the control rate / effect on zinc uptake by the low affinity system: 200 μM added metal, zrt1 mutant cells; for inhibition of pMC4- and pOE2-dependent zinc uptake activity: ZRT2 overexpressing zrt1 cells; for zinc accumulation: 30° C., 10 μM 65Zn
# T2 construct: endogenous in cells; host or cells: S. cerevisiae ZHY1 (zrt1::LEU2) and zinc-replete DY1457; some values come from ZHY1 carrying pMC4 (multicopy genomic ZRT2) or pOE2 (ZRT2 ORF under GAL1)
# T2 sequence (Q12436 whole entry): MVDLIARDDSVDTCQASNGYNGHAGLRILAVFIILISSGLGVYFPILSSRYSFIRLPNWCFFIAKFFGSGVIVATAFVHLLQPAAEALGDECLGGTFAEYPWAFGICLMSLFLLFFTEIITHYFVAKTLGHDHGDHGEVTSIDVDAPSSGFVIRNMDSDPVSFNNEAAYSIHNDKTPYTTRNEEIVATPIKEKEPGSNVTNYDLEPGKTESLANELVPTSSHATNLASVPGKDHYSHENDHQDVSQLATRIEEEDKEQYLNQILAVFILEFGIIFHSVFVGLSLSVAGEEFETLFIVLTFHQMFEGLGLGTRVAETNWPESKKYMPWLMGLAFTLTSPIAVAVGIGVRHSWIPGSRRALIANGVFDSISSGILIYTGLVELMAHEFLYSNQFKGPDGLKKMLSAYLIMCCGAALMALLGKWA
# Experimental: as §1, §2, §3, §4
# [3] = zrt1 cells grown in SD glucose supplemented with 2 mM ZnCl2
structure (smiles),measurement,setting,value
[Cl][Cu][Cl] [Cu],effect on zinc uptake by the high affinity system,"[1]; 2 μM 65Zn, five minutes",inhibitory
same,"uptake rate of radioactive zinc, % of the control rate","[2]; 20 μM 65Zn, five minutes",32%
same,inhibition of pMC4- and pOE2-dependent zinc uptake activity,[2],inhibited
[Cl][Ni][Cl] [Ni],effect on zinc uptake by the high affinity system,"[1]; 2 μM 65Zn, five minutes",unaffected
same,effect on zinc uptake by the low affinity system,"[2]; 20 μM 65Zn, five minutes",did not diminish zinc uptake
[Cl-].[Cl-].[Co+2] [Co],effect on zinc uptake by the high affinity system,"[1]; 2 μM 65Zn, five minutes",unaffected
same,effect on zinc uptake by the low affinity system,"[2]; 20 μM 65Zn, five minutes",did not diminish zinc uptake
[Zn+2] [zinc],control rate of zinc uptake,"[1]; 2 μM 65Zn, five minutes, wild type grown in LZM + 10 μM ZnCl2, no other metal",47 pmol/min/10^6 cells
same,effect on zinc uptake by the high affinity system,"[1]; 2 μM 65Zn, five minutes",inhibitory
same,Vmax of zinc uptake,"[1]; ZHY1(pOE1), ZRT1 expressed from GAL1 promoter, zinc-replete cells, galactose",30 pmol/min/10^6 cells
same,Km,"[1]; ZHY1(pOE1), ZRT1 expressed from GAL1 promoter, zinc-replete cells, galactose, read-out: apparent Km of zinc uptake",0.6 ± 0.1 µM
same,Km,"[1]; calculated free zinc, read-out: apparent Km of the high affinity system, calculated free zinc concentration",~0.01 µM
same,Km,"[1]; total zinc, read-out: apparent Km of the high affinity system, total zinc",1 µM
same,Vmax of zinc uptake,"[1]; wild type DY1457, zinc-limited cells (LZM+10 μM zinc)",80 pmol/min/10^6 cells
same,Km,"[1]; wild type DY1457, zinc-limited cells (LZM+10 μM zinc), read-out: apparent Km of zinc uptake",1 ± 0.1 µM
same,Vmax,"[1]; wild type, low growth medium [Zn] (LZM + 10 μM ZnCl2), mean ± SE",76 ± 2 pmol/min/10^6
same,Km,"[1]; wild type, low growth medium [Zn] (LZM + 10 μM ZnCl2), total zinc, mean ± SE, read-out: Km",0.52 ± 0.07 µM
same,Vmax,"[1]; zrt2, high growth medium [Zn] (LZM + 1.5 mM ZnCl2), mean ± SE",0.31 ± 0.01 pmol/min/10^6
same,Km,"[1]; zrt2, high growth medium [Zn] (LZM + 1.5 mM ZnCl2), total zinc, mean ± SE, read-out: Km",0.4 ± 0.04 µM
same,Vmax,"[1]; zrt2, low growth medium [Zn], mean ± SE",60 ± 2 pmol/min/10^6
same,Km,"[1]; zrt2, low growth medium [Zn], total zinc, mean ± SE, read-out: Km",0.85 ± 0.18 µM
same,control rate of zinc uptake,"[2]; 20 μM 65Zn, five minutes, zrt1 (ZHY1) grown in LZM + 1 mM ZnCl2, no other metal",0.9 pmol/min/10^6 cells
same,"uptake rate of radioactive zinc, % of the control rate","[2]; 20 μM 65Zn, five minutes",approximately 10%
same,rate of zinc uptake of pMC4 transformants relative to vector control,"[2]; ZHY1 (zrt1) with pMC4 vs YEp24, SD glucose, all 65Zn concentrations tested",approximately 15 fold
same,Vmax,"[2]; ZHY1 (zrt1) with plasmid pMC4, SD glucose, mean ± SE",28 ± 1 pmol/min/10^6
same,Km,"[2]; ZHY1 (zrt1) with plasmid pMC4, SD glucose, total zinc, mean ± SE, read-out: Km",8 ± 0.4 µM
same,Vmax,"[2]; ZHY1 (zrt1) with plasmid pOE2 (GAL1-ZRT2), SD galactose, mean ± SE",17 ± 2 pmol/min/10^6
same,Km,"[2]; ZHY1 (zrt1) with plasmid pOE2 (GAL1-ZRT2), SD galactose, total zinc, mean ± SE, read-out: Km",3.6 ± 0.1 µM
same,Vmax,"[2]; ZHY1 (zrt1) with vector (YEp24, control for pMC4), SD glucose, mean ± SE",2.2 ± 0.1 pmol/min/10^6
same,Km,"[2]; ZHY1 (zrt1) with vector (YEp24, control for pMC4), SD glucose, total zinc, mean ± SE, read-out: Km",9.5 ± 0.8 µM
same,Vmax,"[2]; ZHY1 (zrt1) with vector (pRS316-GAL1, control for pOE2), SD galactose, mean ± SE",2.0 ± 0.1 pmol/min/10^6
same,Km,"[2]; ZHY1 (zrt1) with vector (pRS316-GAL1, control for pOE2), SD galactose, total zinc, mean ± SE, read-out: Km",10 ± 1 µM
same,Km,"[2]; calculated free zinc, read-out: apparent Km of the low affinity system, free zinc",~0.1 µM
same,zinc accumulation,"[2]; glucose-starved zrt1 cells, five minutes",no detectable zinc accumulation
same,Km,"[2]; total zinc, read-out: apparent Km of the low affinity system",10 µM
same,Vmax,"[2]; wild type, high growth medium [Zn] (LZM + 1.5 mM ZnCl2), mean ± SE",0.60 ± 0.03 pmol/min/10^6
same,Km,"[2]; wild type, high growth medium [Zn] (LZM + 1.5 mM ZnCl2), total zinc, mean ± SE, read-out: Km",15 ± 3 µM
same,Km,"[2]; wild type, zinc-replete cells (LZM+1000 μM), read-out: apparent Km of zinc uptake",10 ± 1 µM
same,Vmax of zinc uptake,[2]; zinc-replete cells,2 pmol/min/10^6 cells
same,Vmax,"[2]; zrt1, high growth medium [Zn], mean ± SE",0.52 ± 0.04 pmol/min/10^6
same,Km,"[2]; zrt1, high growth medium [Zn], total zinc, mean ± SE, read-out: Km",10 ± 1 µM
same,zinc uptake rate,[2]; [3],0.12 pmol/min/106 cells
same,zinc uptake rate relative to untreated cells,[2]; [3],7%
same,zinc uptake rate,"[2]; zrt1 cells grown in zinc-replete SD glucose, assayed at 10, M 65Zn",1.7 pmol/min/10^6 cells
same,zinc accumulation,"[2]; zrt1 cells incubated with glucose, five minutes",3.7 pmol/10^6 cells
same,Vmax of zinc uptake,[2]; zrt1 mutant cells grown in zinc-limiting and zinc-replete media,1-2 pmol/min/10^6 cells
same,Km,"[2]; zrt1 mutant cells grown in zinc-limiting and zinc-replete media, read-out: apparent Km of zinc uptake",10 ± 1 µM
[Cl][Fe]([Cl])[Cl] [Fe(III)],effect on zinc uptake by the high affinity system,"[1]; 2 μM 65Zn, five minutes",unaffected
same,effect on zinc uptake by the low affinity system,"[2]; 20 μM 65Zn, five minutes",did not diminish zinc uptake
[Fe+2] [Fe(II)],effect on zinc uptake by the high affinity system,"[1]; 2 μM 65Zn, five minutes",inhibitory
same,"uptake rate of radioactive zinc, % of the control rate","[2]; 20 μM 65Zn, five minutes",79%
same,inhibition of pMC4- and pOE2-dependent zinc uptake activity,[2],inhibited
[Cl][Mn][Cl] [Mn],effect on zinc uptake by the high affinity system,"[1]; 2 μM 65Zn, five minutes",unaffected
same,effect on zinc uptake by the low affinity system,"[2]; 20 μM 65Zn, five minutes",did not diminish zinc uptake
